# Source: ChEMBL document CHEMBL1201862, “PubChem BioAssay data set” (2004)
#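 1) Cells in 96-well plates. 2) Compound, 48 h, 5 concentrations. 3) Linear interpolation between surrounding doses. 4) Unreached endpoint = highest concentration. GI50 = concentration required for 50% inhibition of growth.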 The source made the active and inactive calls. No stated cut-off is given here; in the data, active = GI50 up to about 1.1 µM and inactive = higher.
# Tests used:
# Assay in all cases: NCI-60 cell line screen, 48 h
# [1] = test system: OVCAR-4
# [2] = test system: T47D
# [3] = test system: MOLT-4
# [4] = test system: MCF7
# [5] = test system: COLO 205
# [6] = test system: HOP-62
# [7] = test system: RPMI-8226
# [8] = test system: SK-MEL-2
# [9] = test system: TK-10
# [10] = test system: HCC 2998
# [11] = test system: SK-MEL-5
# [12] = test system: ACHN
# [13] = test system: BT-549
# [14] = test system: MDA-N
# [15] = test system: M14
# [16] = test system: Hs-578T
# [17] = test system: K562
# [18] = test system: SF-268
# [19] = test system: A549
# [20] = test system: SN12C
# [21] = test system: NCI-H460
# [22] = test system: EKVX
# [23] = test system: IGROV-1
# [24] = test system: OVCAR-5
# [25] = test system: RXF 393
# [26] = test system: HOP-92
# [27] = test system: SNB-75
# [28] = test system: LOX IMVI
# [29] = test system: HCT-116
# [30] = test system: A498
# [31] = test system: SK-OV-3
# [32] = test system: SK-MEL-28
# [33] = test system: UACC-257
# [34] = test system: NCI-H226
# [35] = test system: PC-3
# [36] = test system: OVCAR-8
# [37] = test system: U-251
# [38] = test system: NCI-H522
# [39] = test system: SW-620
# [40] = test system: MDA-MB-435
# [41] = test system: OVCAR-3
# [42] = test system: HT-29
# [43] = test system: SF-539
# [44] = test system: DU-145
# [45] = test system: SF-295
# [46] = test system: MDA-MB-231
# [47] = test system: 786-0
# [48] = test system: HCT-15
# [49] = test system: UACC-62
# [50] = test system: KM12
# [51] = test system: UO-31
# [52] = test system: CAKI-1
# [53] = test system: NCI-H23
# [54] = test system: SNB-19
# [55] = test system: Malme-3M
# [56] = test system: NCI/ADR-RES
# [57] = test system: HL-60
# [58] = test system: CCRF-CEM
# [59] = test system: SR
smiles,measurement,setting,value
O=[N+]([O-])c1cccc(/N=C2\c3ccccc3CN2c2cccc([N+](=O)[O-])c2)c1,GI50,[1],65.9 µM (inactive)
same,GI50,[2],> 100 µM (inactive)
same,GI50,[3],> 100 µM (inactive)
same,GI50,[4],33.7 µM (inactive)
same,GI50,[5],> 100 µM (inactive)
same,GI50,[6],> 100 µM (inactive)
same,GI50,[7],> 100 µM (inactive)
same,GI50,[8],> 100 µM (inactive)
same,GI50,[9],> 100 µM (inactive)
same,GI50,[10],> 100 µM (inactive)
same,GI50,[11],> 100 µM (inactive)
same,GI50,[12],74.5 µM (inactive)
same,GI50,[13],> 100 µM (inactive)
same,GI50,[14],> 100 µM (inactive)
same,GI50,[15],> 100 µM (inactive)
same,GI50,[16],37.8 µM (inactive)
same,GI50,[17],> 100 µM (inactive)
same,GI50,[18],81.5 µM (inactive)
same,GI50,[19],> 100 µM (inactive)
same,GI50,[20],> 100 µM (inactive)
same,GI50,[21],> 100 µM (inactive)
same,GI50,[22],> 100 µM (inactive)
same,GI50,[23],> 100 µM (inactive)
same,GI50,[24],> 100 µM (inactive)
same,GI50,[25],31.9 µM (inactive)
same,GI50,[26],19.4 µM (inactive)
same,GI50,[27],24.8 µM (inactive)
same,GI50,[28],> 100 µM (inactive)
same,GI50,[29],> 100 µM (inactive)
same,GI50,[30],> 100 µM (inactive)
same,GI50,[31],> 100 µM (inactive)
same,GI50,[32],> 100 µM (inactive)
same,GI50,[33],> 100 µM (inactive)
same,GI50,[34],> 100 µM (inactive)
same,GI50,[35],72.8 µM (inactive)
same,GI50,[36],> 100 µM (inactive)
same,GI50,[37],> 100 µM (inactive)
same,GI50,[38],> 100 µM (inactive)
same,GI50,[39],> 100 µM (inactive)
same,GI50,[40],> 100 µM (inactive)
same,GI50,[41],65 µM (inactive)
same,GI50,[42],> 100 µM (inactive)
same,GI50,[43],71 µM (inactive)
same,GI50,[44],> 100 µM (inactive)
same,GI50,[45],> 100 µM (inactive)
same,GI50,[46],> 100 µM (inactive)
same,GI50,[47],50.7 µM (inactive)
same,GI50,[48],> 100 µM
same,GI50,[49],> 100 µM (inactive)
same,GI50,[50],> 100 µM (inactive)
same,GI50,[51],> 100 µM (inactive)
same,GI50,[52],> 100 µM (inactive)
same,GI50,[53],> 100 µM (inactive)
same,GI50,[54],> 100 µM (inactive)
O=C1N2CCC[C@H]2CS1(=O)=O,GI50,[1],11.8 µM (inactive)
same,GI50,[2],13.5 µM (inactive)
same,GI50,[3],3.34 µM (inactive)
same,GI50,[4],6.73 µM (inactive)
same,GI50,[5],12.2 µM (inactive)
same,GI50,[6],16.1 µM (inactive)
same,GI50,[7],2.77 µM (inactive)
same,GI50,[8],17.6 µM (inactive)
same,GI50,[9],18.2 µM (inactive)
same,GI50,[10],17.3 µM (inactive)
same,GI50,[11],17.5 µM (inactive)
same,GI50,[12],15.2 µM (inactive)
same,GI50,[13],14.8 µM (inactive)
same,GI50,[55],13.2 µM (inactive)
same,GI50,[15],14.6 µM (inactive)
same,GI50,[16],55.1 µM (inactive)
same,GI50,[56],30 µM (inactive)
same,GI50,[17],5.62 µM (inactive)
same,GI50,[18],20.7 µM (inactive)
same,GI50,[19],22.8 µM (inactive)
same,GI50,[20],15.7 µM (inactive)
same,GI50,[21],32.7 µM (inactive)
same,GI50,[22],22 µM (inactive)
same,GI50,[23],15.5 µM (inactive)
same,GI50,[24],36.9 µM (inactive)
same,GI50,[25],7.36 µM (inactive)
same,GI50,[26],10.9 µM (inactive)
same,GI50,[27],18.6 µM (inactive)
same,GI50,[28],11.3 µM (inactive)
same,GI50,[29],12.7 µM (inactive)
same,GI50,[30],20.4 µM (inactive)
same,GI50,[31],36.6 µM (inactive)
same,GI50,[32],18.4 µM (inactive)
same,GI50,[33],18.7 µM (inactive)
same,GI50,[57],19.1 µM (inactive)
same,GI50,[34],25.4 µM (inactive)
same,GI50,[35],16.5 µM (inactive)
same,GI50,[36],13.6 µM (inactive)
same,GI50,[37],16.5 µM (inactive)
same,GI50,[38],5.66 µM (inactive)
same,GI50,[39],8 µM (inactive)
same,GI50,[58],2.3 µM (inactive)
same,GI50,[40],17.1 µM (inactive)
same,GI50,[41],15.8 µM (inactive)
same,GI50,[42],28.5 µM (inactive)
same,GI50,[43],29.5 µM (inactive)
same,GI50,[44],17.9 µM (inactive)
same,GI50,[45],40.2 µM (inactive)
same,GI50,[46],15.4 µM (inactive)
same,GI50,[47],11.1 µM (inactive)
same,GI50,[48],12.6 µM
same,GI50,[49],16.4 µM (inactive)
same,GI50,[50],16.6 µM (inactive)
same,GI50,[51],14.5 µM (inactive)
same,GI50,[52],5.73 µM (inactive)
same,GI50,[53],15.8 µM (inactive)
same,GI50,[54],35.9 µM (inactive)
CN(C)c1nc(Cl)c2c(-c3ccccc3)c(-c3ccccc3)oc2n1,GI50,[1],75.7 µM (inactive)
same,GI50,[2],83 µM (inactive)
same,GI50,[3],32.2 µM (inactive)
same,GI50,[4],28.9 µM (inactive)
same,GI50,[5],> 100 µM (inactive)
same,GI50,[7],18.9 µM (inactive)
same,GI50,[9],> 100 µM (inactive)
same,GI50,[10],64.6 µM (inactive)
same,GI50,[11],41.7 µM (inactive)
same,GI50,[12],70 µM (inactive)
same,GI50,[13],29.7 µM (inactive)
same,GI50,[15],> 100 µM (inactive)
same,GI50,[16],62.1 µM (inactive)
same,GI50,[56],82.4 µM (inactive)
same,GI50,[17],42.1 µM (inactive)
same,GI50,[18],36 µM (inactive)
same,GI50,[19],98.2 µM (inactive)
same,GI50,[20],39.5 µM (inactive)
same,GI50,[59],21.8 µM (inactive)
same,GI50,[22],> 100 µM (inactive)
same,GI50,[23],80.7 µM (inactive)
same,GI50,[24],> 100 µM (inactive)
same,GI50,[25],19.4 µM (inactive)
same,GI50,[26],81.5 µM (inactive)
same,GI50,[27],35.8 µM (inactive)
same,GI50,[28],33.3 µM (inactive)
same,GI50,[29],31.2 µM (inactive)
same,GI50,[30],> 100 µM (inactive)
same,GI50,[31],58.3 µM (inactive)
same,GI50,[32],> 100 µM (inactive)
same,GI50,[33],> 100 µM (inactive)
same,GI50,[57],12.2 µM (inactive)
same,GI50,[34],> 100 µM (inactive)
same,GI50,[36],> 100 µM (inactive)
same,GI50,[37],> 100 µM (inactive)
same,GI50,[38],17.5 µM (inactive)
same,GI50,[39],93.5 µM (inactive)
same,GI50,[58],28.1 µM (inactive)
same,GI50,[40],> 100 µM (inactive)
same,GI50,[42],58.7 µM (inactive)
same,GI50,[43],48 µM (inactive)
same,GI50,[44],52.4 µM (inactive)
same,GI50,[45],58.1 µM (inactive)
same,GI50,[46],43 µM (inactive)
same,GI50,[47],72.8 µM (inactive)
same,GI50,[48],31.6 µM
same,GI50,[49],95.5 µM (inactive)
same,GI50,[50],> 100 µM (inactive)
same,GI50,[51],> 100 µM (inactive)
same,GI50,[52],23.2 µM (inactive)
same,GI50,[53],41.3 µM (inactive)
same,GI50,[54],> 100 µM (inactive)
CCOC(=O)c1c(OCC)[nH]c(=O)c(C(c2cccs2)c2c(O)c(C(=O)OCC)c(OCC)[nH]c2=O)c1O,GI50,[1],17.6 µM (inactive)
same,GI50,[2],0.0989 µM (active)
same,GI50,[3],6.47 µM (inactive)
same,GI50,[4],14.9 µM (inactive)
same,GI50,[5],17.3 µM (inactive)
same,GI50,[6],10.4 µM (inactive)
same,GI50,[7],12.1 µM (inactive)
same,GI50,[8],12.8 µM (inactive)
same,GI50,[9],25.4 µM (inactive)
same,GI50,[10],13.9 µM (inactive)
same,GI50,[11],12.9 µM (inactive)
same,GI50,[12],12.8 µM (inactive)
same,GI50,[13],5 µM (inactive)
same,GI50,[55],8.36 µM (inactive)
same,GI50,[15],16.1 µM (inactive)
same,GI50,[16],21 µM (inactive)
same,GI50,[56],27.4 µM (inactive)
same,GI50,[18],10.2 µM (inactive)
same,GI50,[19],14.5 µM (inactive)
same,GI50,[20],15.4 µM (inactive)
same,GI50,[21],13.3 µM (inactive)
same,GI50,[22],11.5 µM (inactive)
same,GI50,[23],13.9 µM (inactive)
same,GI50,[24],26.5 µM (inactive)
same,GI50,[25],1.7 µM (inactive)
same,GI50,[26],9.42 µM (inactive)
same,GI50,[27],0.082 µM (active)
same,GI50,[28],12.6 µM (inactive)
same,GI50,[29],17.5 µM (inactive)
same,GI50,[30],2.67 µM (inactive)
same,GI50,[32],13.1 µM (inactive)
same,GI50,[33],11.7 µM (inactive)
same,GI50,[57],13.7 µM (inactive)
same,GI50,[34],3.9 µM (inactive)
same,GI50,[35],18.2 µM (inactive)
same,GI50,[36],12.6 µM (inactive)
same,GI50,[37],12.4 µM (inactive)
same,GI50,[38],13.8 µM (inactive)
same,GI50,[39],12.1 µM (inactive)
same,GI50,[58],14.2 µM (inactive)
same,GI50,[40],14.5 µM (inactive)
same,GI50,[41],11.6 µM (inactive)
same,GI50,[42],16.1 µM (inactive)
same,GI50,[43],6.4 µM (inactive)
same,GI50,[44],13.9 µM (inactive)
same,GI50,[45],12 µM (inactive)
same,GI50,[46],11.1 µM (inactive)
same,GI50,[47],12.1 µM (inactive)
same,GI50,[48],14.5 µM
same,GI50,[49],14.2 µM (inactive)
same,GI50,[50],17.9 µM (inactive)
same,GI50,[51],10.9 µM (inactive)
same,GI50,[52],18 µM (inactive)
same,GI50,[53],21.4 µM (inactive)
same,GI50,[54],11.4 µM (inactive)
